Reference: US6512112B2, “Aminoaryl oxazolidinone N-oxides” (Pharmacia & Upjohn Company, priority 1995, dated 2003)
Converted amounts (≈) assume the structure as drawn. Like-named read-outs stand apart in the source and are kept apart here.

How the values were obtained:
[1] = Solubility in pH 7, 50 mM phosphate buffer; format: physicochemical; conditions: thermodynamic from solid
Procedure: The samples are capped and stirred via magnetic stir bars for 24 to 48 hours at room temperature. Samples are filter centrifuged (800×g) for 5-10 minutes through Millipore Ultrafree-MC 0.22 Micron filter units. The supernate is analyzed by either UV or HPLC to quantitate the drug concentration.

S. Aureus UC ® 9213 = assay: Minimum inhibitory concentration (MIC) by agar dilution; format: cell-based; conditions: Staphylococcus aureus, UC9213
Procedure: (§1) The oxazolidinone compounds of the present invention have useful activity against a variety of microorganisms. The in vitro activity of compounds of the present invention are assessed by standard testing procedures such as the determination of minimum inhibitory concentration (MIC) by agar dilution as described in “Methods for Dilution Antimicrobial Susceptiblity Tests for Bacteria That Grow Aerobically” (MFT) published January 1993 by the National Committee for Clinical Laboratory Standards (NCCLS), 771 East Lancaster Avenue, Villanova, Pa. 19084, USA. The activity of selected compounds of the present invention against Staphylococcus aureus and Streptococcus pneumoniae are shown in Table 2.

S. Pneumoniae UC ® 9912 = assay: as above; format: cell-based; conditions: Streptococcus pneumoniae, UC9912
Procedure: as §1

[2] = Reduction of the N-oxide in vivo following intravenous and oral administration to rats; set-up: species or system male Sprague-Dawley rats; conditions: rat
Procedure: The rate and extent of reduction of the N-oxide of Example 2 was investigated in vivo using the following procedures: Six male Sprague-Dawley rats are used for this study. Three rats are given a single intravenous 10 mg/kg dose of the N-oxide and three rats are given a single oral 25 mg/kg dose of the N-oxide. Blood is collected pre-dose and up to 24 h post dose. The plasma is analyzed for the N-oxide and the parent amine by LC-MS.

[3] = aqueous buffer, pH 7, 50 mM phosphate buffer or other vehicle, room temperature, 24 to 48 hours, read-out: N-Oxide Solubility
[4] = aqueous buffer, parent amine of the example's N-oxide, pH 7, 50 mM phosphate buffer or other vehicle, room temperature, 24 to 48 hours, read-out: Parent Amine Solubility

Structure (SMILES)	melting point [°C]	solubility [1, 3] [mg/mL]	MIC (S. Aureus UC ® 9213) [mg/L]	MIC (S. Pneumoniae UC ® 9912) [mg/L]	solubility [1, 4] [mg/mL]	further results
CC(=O)NC[C@H]1CN(c2ccc([N+]3([O-])CCN(C(=O)CO)CC3)c(F)c2)C(=O)O1 (hydrate or solvate) [Example 1, (S)-N-[[3-[3-fluoro4-[4-(hydroxyacetyl)-1-piperazinyl]phenyl]-2-oxo-5-oxazolidinyl]-methyl]acetamide N-oxide]	158 to 160	–	–	–	–	–
CC(=O)NC[C@H]1CN(c2ccc([N+]3([O-])CCN(C(=O)CO)CC3)c(F)c2)C(=O)O1 [Example 1, (S)-N-[[3-[3-fluoro4-[4-(hydroxyacetyl)-1-piperazinyl]phenyl]-2-oxo-5-oxazolidinyl]-methyl]acetamide N-oxide]	–	348 (≈ 848 mM)	2 (≈ 0.00487 mM)	0.5 (≈ 0.00122 mM)	–	–
CC(=O)NC[C@H]1CN(c2ccc([N+]3([O-])CCOCC3)c(F)c2)C(=O)O1 [Example 2]	202 to 204	534 (≈ 1510 mM)	4 (≈ 0.0113 mM)	1 (≈ 0.00283 mM)	–	solubility ([1]; water, value stated, read-out: water solubility): 409 mg/mL (≈ 1160 mM); N-oxide found in plasma ([2]; 10 mg/kg intravenous N-oxide, first time point immediately post injection, LC-MS): Only traces; Cmax, Tmax and AUC values for the parent amine compared with direct administration of the parent amine ([2]; N-oxide 10 mg/kg intravenous and 25 mg/kg oral, same doses and protocol): very similar; conversion of the N-oxide to the parent amine in vivo ([2]; intravenous and oral dosing): rapid and essentially quantitative
CC(=O)NC[C@H]1CN(c2cc(F)c([N+]3([O-])CCN(C(=O)CO)CC3)c(F)c2)C(=O)O1 [Example 4, (S)-N-[[3-[3,5-difluoro-4-[4-(hydroxyacetyl)-1-piperazinyl]phenyl]-2-oxo-5-oxazolidinyl]-methyl]acetamide N-oxide]	100 to 105	–	2 (≈ 0.00467 mM)	0.5 (≈ 0.00117 mM)	–	–
CC(=O)[NH+]([O-])C[C@@H]1CN(c2ccc(N3CCN(S(=O)(=O)CC#N)CC3)c(F)c2)C(=O)O1 (stereo partly drawn) [Example 5, (S)-N-[[3-[4-[4-[(cyanomethyl)sulfonyl]-1-piperazinyl]3-fluorophenyl]-2-oxo-5-oxazolidinyl]methyl]acetamide N-oxide]	153 to 156	–	4 (≈ 0.00878 mM)	0.5 (≈ 0.0011 mM)	–	–
CC(=O)NC[C@H]1CN(c2ccc([N+]3([O-])CCN(S(=O)(=O)c4ccccc4C#N)CC3)c(F)c2)C(=O)O1 [Example 6, (S)-N-[[3-[4-[4-[(2-cyanophenyl)sulfonyl]-1-piperazinyl]-3-fluorophenyl]-2-oxo-5-oxazolidinyl]methyl]acetamide N-oxide]	190 to 192	1.1 (≈ 2.13 mM)	2 (≈ 0.00386 mM)	0.25 (≈ 0.000483 mM)	–	–
CC(=O)NC[C@H]1CN(c2ccc(N3CCN(C(=O)CO)CC3)c(F)c2)C(=O)O1 [parent amine of Example 1, (S)-N-[[3-[3-Fluoro-4-[4-(hydroxyacetyl)-1-piperazinyl]-phenyl]-2-oxo-5-oxazolidinyl]methyl]-acetamide, reference compound]	–	–	–	–	4.2 (≈ 10.6 mM)	–
CC(=O)NC[C@H]1CN(c2ccc(N3CCOCC3)c(F)c2)C(=O)O1 [parent amine of Example 2, (S )-N-[[3-[3 -Fluoro-4-(4-morpholinyl)phenyl]-2-oxo-5-oxazolidinyl]methyl]-acetamide, reference compound]	–	–	–	–	–	time parent amine detected in plasma post dosing ([2]; after dosing of the N-oxide, lower limit of quantitation ≈0.01 μg/mL): up to 10 h
CC(=O)NC[C@H]1CN(c2ccc(N3CCN(S(C)(=O)=O)CC3)c(F)c2)C(=O)O1 [parent amine of Example 3, (S)-N-[[3-[3-fluoro-4-[4-(methylsulfonyl)-1-piperazinyl]phenyl]-2-oxo-5-oxazolidinyl]-methyl]acetamide, reference compound]	–	–	–	–	0.28 (≈ 0.676 mM)	–
CC(=O)NC[C@H]1CN(c2ccc(N3CCN(S(=O)(=O)c4ccccc4C#N)CC3)c(F)c2)C(=O)O1 [parent amine of Example 6, (S)-N-[[3-[4-[4-[(2-cyanophenyl)sulfonyl]-1-piperazinyl]-3-fluorophenyl]-2-oxo-5-oxazolidinyl]methyl]acetamide, reference compound]	–	–	–	–	0.031 (≈ 0.0618 mM)	–
